In brackets after ≈: the same amount, converted by molar mass.
Key:
Format in all cases: functional
Streptococcus pneumoniae [1] = test: Antibacterial activity against Pneumococcus DAW8 isolated from sickle cell disease patient
Streptococcus pneumoniae [2] = test: Antibacterial activity against Pneumococcus DAW6 isolated from sickle cell disease patient
Streptococcus pneumoniae [3] = test: Antibacterial activity against Pneumococcus DAW2 isolated from sickle cell disease patient
Streptococcus pneumoniae [4] = test: Antibacterial activity against Pneumococcus DAW9 isolated from sickle cell disease patient
Streptococcus pneumoniae [5] = test: Antibacterial activity against Pneumococcus DAW12 isolated from sickle cell disease patient
Streptococcus pneumoniae [6] = test: Antibacterial activity against Pneumococcus DAW13 isolated from sickle cell disease patient
Streptococcus pneumoniae [7] = test: Antibacterial activity against Pneumococcus DAW14 isolated from sickle cell disease patient
Streptococcus pneumoniae [8] = test: Antibacterial activity against Pneumococcus DAW15 isolated from sickle cell disease patient
Streptococcus pneumoniae [9] = test: Antibacterial activity against Pneumococcus DAW19 isolated from sickle cell disease patient
Streptococcus pneumoniae [10] = test: Antibacterial activity against Pneumococcus DAW22 isolated from sickle cell disease patient
Streptococcus pneumoniae [11] = test: Antibacterial activity against Pneumococcus DAW24 isolated from sickle cell disease patient
Streptococcus pneumoniae [12] = test: Antibacterial activity against Pneumococcus DAW26 isolated from sickle cell disease patient
Streptococcus pneumoniae [13] = test: Antibacterial activity against Pneumococcus DAW27 isolated from sickle cell disease patient
Streptococcus pneumoniae [14] = test: Antibacterial activity against Pneumococcus DAW51 isolated from sickle cell disease patient
Streptococcus pneumoniae [15] = test: Antibacterial activity against Pneumococcus DAW53 isolated from sickle cell disease patient
Streptococcus pneumoniae [16] = test: Antibacterial activity against Pneumococcus DAW57 isolated from sickle cell disease patient
Streptococcus pneumoniae [17] = test: Antibacterial activity against Pneumococcus DAW61 isolated from sickle cell disease patient
Streptococcus pneumoniae [18] = test: Antibacterial activity against Pneumococcus DAW65 isolated from sickle cell disease patient
Streptococcus pneumoniae [19] = test: Antibacterial activity against Pneumococcus DAW66 isolated from sickle cell disease patient
Streptococcus pneumoniae [20] = test: Antibacterial activity against Pneumococcus DAW70 isolated from sickle cell disease patient
Streptococcus pneumoniae [21] = test: Antibacterial activity against Pneumococcus DAW75 isolated from sickle cell disease patient
Streptococcus pneumoniae [22] = test: Antibacterial activity against Pneumococcus DAW86 isolated from sickle cell disease patient
Streptococcus pneumoniae [23] = test: Antibacterial activity against Pneumococcus CDC001 isolated from sickle cell disease patient
Streptococcus pneumoniae [24] = test: Antibacterial activity against Pneumococcus CDC018 isolated from sickle cell disease patient
Streptococcus pneumoniae [25] = test: Antibacterial activity against Pneumococcus CDC023 isolated from sickle cell disease patient
Streptococcus pneumoniae [26] = test: Antibacterial activity against Pneumococcus CDC050 isolated from sickle cell disease patient
Streptococcus pneumoniae [27] = test: Antibacterial activity against Pneumococcus CDC063 isolated from sickle cell disease patient
Streptococcus pneumoniae [28] = test: Antibacterial activity against Pneumococcus CDC068 isolated from sickle cell disease patient
Streptococcus pneumoniae [29] = test: Antibacterial activity against Pneumococcus DAW62 isolated from sickle cell disease patient
Streptococcus pneumoniae [30] = test: Antibacterial activity against Pneumococcus DAW67 isolated from sickle cell disease patient
Streptococcus pneumoniae [31] = test: Antibacterial activity against Pneumococcus DAW68 isolated from sickle cell disease patient
Streptococcus pneumoniae [32] = test: Antibacterial activity against Pneumococcus CDC013 isolated from sickle cell disease patient
Streptococcus pneumoniae [33] = test: Antibacterial activity against Pneumococcus CDC020 isolated from sickle cell disease patient

| Compound | MIC (Streptococcus pneumoniae [1]) [µg/mL] | MIC (Streptococcus pneumoniae [2]) [µg/mL] | MIC (Streptococcus pneumoniae [3]) [µg/mL] | MIC (Streptococcus pneumoniae [4]) [µg/mL] | MIC (Streptococcus pneumoniae [5]) [µg/mL] | MIC (Streptococcus pneumoniae [6]) [µg/mL] | MIC (Streptococcus pneumoniae [7]) [µg/mL] | MIC (Streptococcus pneumoniae [8]) [µg/mL] | MIC (Streptococcus pneumoniae [9]) [µg/mL] | MIC (Streptococcus pneumoniae [10]) [µg/mL] | MIC (Streptococcus pneumoniae [11]) [µg/mL] | MIC (Streptococcus pneumoniae [12]) [µg/mL] | MIC (Streptococcus pneumoniae [13]) [µg/mL] | MIC (Streptococcus pneumoniae [14]) [µg/mL] | MIC (Streptococcus pneumoniae [15]) [µg/mL] | MIC (Streptococcus pneumoniae [16]) [µg/mL] | MIC (Streptococcus pneumoniae [17]) [µg/mL] | MIC (Streptococcus pneumoniae [18]) [µg/mL] | MIC (Streptococcus pneumoniae [19]) [µg/mL] | MIC (Streptococcus pneumoniae [20]) [µg/mL] | other results |
| --- | --- | --- | --- | --- | --- | --- | --- | --- | --- | --- | --- | --- | --- | --- | --- | --- | --- | --- | --- | --- | --- |
| CCC[C@@H]1C[C@@H](C(=O)N[C@@H]([C@H]2O[C@H](SC)[C@H](O)[C@@H](O)[C@H]2O)[C@H](C)Cl)N(C)C1 [CLINDAMYCIN] | 0.25 (≈ 0.588 µM) | 0.038 (≈ 0.0894 µM) | 0.25 (≈ 0.588 µM) | 256 (≈ 602 µM) | 0.25 (≈ 0.588 µM) | 0.25 (≈ 0.588 µM) | 0.25 (≈ 0.588 µM) | 0.38 (≈ 0.894 µM) | 0.19 (≈ 0.447 µM) | 256 (≈ 602 µM) | 0.25 (≈ 0.588 µM) | 0.25 (≈ 0.588 µM) | 256 (≈ 602 µM) | 0.25 (≈ 0.588 µM) | 0.25 (≈ 0.588 µM) | 256 (≈ 602 µM) | 0.5 (≈ 1.18 µM) | 0.25 (≈ 0.588 µM) | 0.25 (≈ 0.588 µM) | 0.38 (≈ 0.894 µM) | MIC (Streptococcus pneumoniae [21]): 0.125 µg/mL (≈ 0.294 µM); MIC (Streptococcus pneumoniae [22]): 0.25 µg/mL (≈ 0.588 µM); MIC (Streptococcus pneumoniae [23]): 0.19 µg/mL (≈ 0.447 µM); MIC (Streptococcus pneumoniae [24]): 256 µg/mL (≈ 602 µM); MIC (Streptococcus pneumoniae [25]): 0.125 µg/mL (≈ 0.294 µM); MIC (Streptococcus pneumoniae [26]): 0.25 µg/mL (≈ 0.588 µM); MIC (Streptococcus pneumoniae [27]): 0.25 µg/mL (≈ 0.588 µM); MIC (Streptococcus pneumoniae [28]): 0.25 µg/mL (≈ 0.588 µM) |
| CC[C@H]1OC(=O)[C@H](C)[C@@H](O[C@H]2C[C@@](C)(OC)[C@@H](O)[C@H](C)O2)[C@H](C)[C@@H](O[C@@H]2O[C@H](C)C[C@H](N(C)C)[C@H]2O)[C@](C)(O)C[C@@H](C)C(=O)[C@H](C)[C@@H](O)[C@]1(C)O [ERYTHROMYCIN] | 0.125 (≈ 0.17 µM) | 0.25 (≈ 0.341 µM) | 0.125 (≈ 0.17 µM) | 256 (≈ 349 µM) | 0.19 (≈ 0.259 µM) | 4 (≈ 5.45 µM) | 0.19 (≈ 0.259 µM) | 0.19 (≈ 0.259 µM) | 24 (≈ 32.7 µM) | 256 (≈ 349 µM) | 0.125 (≈ 0.17 µM) | 0.125 (≈ 0.17 µM) | 256 (≈ 349 µM) | 0.19 (≈ 0.259 µM) | 0.25 (≈ 0.341 µM) | 256 (≈ 349 µM) | 256 (≈ 349 µM) | 0.19 (≈ 0.259 µM) | 0.19 (≈ 0.259 µM) | 0.19 (≈ 0.259 µM) | MIC (Streptococcus pneumoniae [29]): 0.125 µg/mL (≈ 0.17 µM); MIC (Streptococcus pneumoniae [30]): 0.125 µg/mL (≈ 0.17 µM); MIC (Streptococcus pneumoniae [31]): 0.125 µg/mL (≈ 0.17 µM); MIC (Streptococcus pneumoniae [21]): 0.19 µg/mL (≈ 0.259 µM); MIC (Streptococcus pneumoniae [22]): 0.19 µg/mL (≈ 0.259 µM); MIC (Streptococcus pneumoniae [23]): 0.19 µg/mL (≈ 0.259 µM); MIC (Streptococcus pneumoniae [32]): 0.125 µg/mL (≈ 0.17 µM); MIC (Streptococcus pneumoniae [24]): 256 µg/mL (≈ 349 µM); MIC (Streptococcus pneumoniae [33]): 256 µg/mL (≈ 349 µM); MIC (Streptococcus pneumoniae [25]): 0.125 µg/mL (≈ 0.17 µM); MIC (Streptococcus pneumoniae [26]): 0.25 µg/mL (≈ 0.341 µM); MIC (Streptococcus pneumoniae [27]): 32 µg/mL (≈ 43.6 µM); MIC (Streptococcus pneumoniae [28]): 0.19 µg/mL (≈ 0.259 µM) |

Source: ChEMBL document CHEMBL1142146, “Quinupristin-dalfopristin nonsusceptibility in pneumococci from sickle cell disease patients” (2007)
